From patent US11433057B2, “Method for improving or enhancing cognition” (VANDA PHARMACEUTICALS INC., priority 2016, dated 2022)

Legend:
Format in all cases: in vivo, human
[1] = system: patients with findings consistent with mild AD or amnestic MCI; assay: CANTAB Paired Associates Learning (PAL), 4-week placebo-controlled study; conditions: 15 mg daily oral, study day 1
Protocol: (§1) The following example illustrates the methods of the invention, in which a 4-week, parallel-group, randomized, double-blind, placebo-controlled, adaptive proof of concept study of AQW051 at up to three dose levels for the treatment of patients with findings consistent with mild Alzheimer's disease (AD) or Mild Cognitive Impairment (amnestic MCI) was conducted in two stages.
(§2) To assess AQW051 as a cognitive enhancer, as measured by selected tests [Paired Associates Learning (PAL), Spatial Working Memory (SWM), Rapid Visual Information Processing (RVP)] from the Cambridge Neuropsychological Test Automated Battery (CANTAB) computerized cognitive test battery, in patients with findings consistent with mild AD or amnestic MCI.
(§3) The investigational drug AQW51 was provided as either 0.5 mg, 5 mg, or 25 mg capsules. In stage I only 5 mg capsules were used. All groups received 15 mg of AQW051 daily for 4 weeks.
(§4) On Day 1, 8, 15, 22 and 28, the study drug was administered by study personnel and was taken orally with 240 ml of water after light breakfast. On all other study treatment days, patients self-administered the study medication in the morning after light breakfast.
(§5) The different CANTAB readouts were analyzed separately by rank analyses of covariance, including “treatment” and “stratum” (MCI, AD) as fixed effects and the corresponding baseline value as covariate. The comparison of interest was the contrast between active treatment and placebo; tests were performed to the one-sided 10% level without multiplicity-adjustment. Point and interval estimates were produced by the baseline-adjusted stratified Hodges-Lehmann method. In addition, sensitivity analyses were performed using standard analyses of covariance, to complement the aforementioned nonparametric methods. The items “errors at the 6 pattern stage” and “total trials adjusted” of the PAL task at day 28 played a key role at the interim analysis. At the end of stage 1, the conditional power of the study to reach an overall significant result in both these key endpoints at the final analysis was estimated by bootstrap methods. The different scores from the ADAS-Cog, QoL-AD, the DAD and the MMSE were analyzed using standard analyses of covariance. Safety and tolerability variables measures were analyzed by means of descriptive statistics.

[2] = system: patients with findings consistent with mild AD or amnestic MCI; assay: CANTAB Spatial Working Memory (SWM), 4-week placebo-controlled study; conditions: 15 mg daily oral, study day 28
Protocol: as §1, §2, §3, §4, §5

[3] = system: patients with findings consistent with mild AD or amnestic MCI; assay: CANTAB Rapid Visual Information Processing (RVP), 4-week placebo-controlled study; conditions: 15 mg daily oral, study day 1
Protocol: as §1, §2
The investigational drug AQW51 was provided as either 0.5 mg, 5 mg, or 25 mg capsules. In stage I only 5 mg capsules were used. All groups received 15 mg of AQW051 daily for 4 weeks. […]
(§6) The different CANTAB readouts were analyzed separately by rank analyses of covariance, including “treatment” and “stratum” (MCI, AD) as fixed effects and the corresponding baseline value as covariate. […] The different scores from the ADAS-Cog, QoL-AD, the DAD and the MMSE were analyzed using standard analyses of covariance. Safety and tolerability variables measures were analyzed by means of descriptive statistics.

[4] = system: patients with findings consistent with mild AD or amnestic MCI; assay: CANTAB Choice Reaction Time (CRT), 4-week placebo-controlled study; conditions: 15 mg daily oral, study day 28
Protocol: as §1
(§7) To explore effects of AQW051 on other cognitive functions not assessed by the primary measures (CANTAB tests Pattern Recognition Memory (PRM), Choice Reaction Time (CRT), Graded Naming Test-Revised (GNT).
as §3, §4, §5

[5] = system: patients with findings consistent with mild AD or amnestic MCI; assay: CANTAB Graded Naming Test-Revised (GNT), 4-week placebo-controlled study; conditions: 15 mg daily oral; study day 28; PD analysis set N=54; p=0.8191
Protocol: as §1, §7, §3
On Day 1, 8, 15, 22 and 28, the study drug was administered by study personnel and was taken orally with 240 ml of water after light breakfast. […]
as §6

[6] = system: patients with findings consistent with mild AD or amnestic MCI; assay: CANTAB Pattern Recognition Memory (PRM), 4-week placebo-controlled study; conditions: 15 mg daily oral, study day 28, PD analysis set N=54
Protocol: as §1, §7, §3, §4, §5

[7] = system: patients with findings consistent with mild AD or amnestic MCI; assay: Adverse events, safety analysis set, 4-week placebo-controlled study; conditions: 15 mg daily oral, 4 weeks
Protocol: as §1
To explore the safety and tolerability of AQW051 in patients with findings consistent with mild AD or amnestic MCI.
as §3, §4, §5
Under one treatment, a subject with multiple occurrences of an adverse event is counted only once in the AE category. N=number of subject studied; n=number of subjects with at least 1 AE in the category. Only adverse events occurring at or after first drug intake are included.

Question: What does the source list for `Cc1ccc(-c2ccc(O[C@H]3CN4CCC3CC4)cn2)cc1` [AQW051, (R)-3-(6-p-tolyl-pyridin-3-yloxy)-1-aza-bicyclo[2.2.2]octane]?
Answer: PAL of total errors (2 shapes adj), Difference AQW051 15 mg vs. Placebo ([1]; MCI patient only N=38, p=0.0239): 0; PAL total trials (adj), Difference AQW051 15 mg vs. Placebo ([1]; MCI patient only N=38, p=0.0877): −1.5; PAL total errors (2 shapes adj), Difference AQW051 15 mg vs. Placebo ([1]; all patients N=54, p=0.0142): 0; PAL total errors (6 shapes adj), Difference AQW051 15 mg vs. Placebo ([1]; all patients N=54, p=0.0840): −2; PAL total trials (adj), Difference AQW051 15 mg vs. Placebo ([1]; all patients N=54, p=0.0846): −1; SWM Between errors (6 boxes), Difference AQW051 15 mg vs. Placebo ([2]; MCI patient only N=38, p=0.0290): −2.5; SWM Between errors, Difference AQW051 15 mg vs. Placebo ([2]; MCI patient only N=38, p=0.0845): −5; SWM Between errors (6 boxes), Difference AQW051 15 mg vs. Placebo ([2]; all patients N=54, p=0.0430): −2; SWM Between errors, Difference AQW051 15 mg vs. Placebo ([2]; all patients N=54, p=0.0701): −3.5; SWM Between errors (4 boxes), Difference AQW051 15 mg vs. Placebo ([2]; all patients N=54, p=0.0866): −0.5; RVP Mean latency, Difference AQW051 15 mg vs. Placebo ([3]; MCI patient only N=38, p=0.0419): −22; RVP Mean latency, Difference AQW051 15 mg vs. Placebo ([3]; all patients N=54, p=0.0292): −21.5; CRT Percent correct trials, Difference AQW051 15 mg vs. Placebo ([4]; MCI patient only N=38, p=0.0918): 0.5; CRT Median latency, Difference, AQW051 15 mg vs. placebo ([4]; MCI patient only N=38, p=0.0966): −23; CRT Median latency, Difference, AQW051 15 mg vs. placebo ([4]; PD analysis set N=54, p=0.3273): −9.5; CRT Percent correct trials, Difference AQW051 15 mg vs. Placebo ([4]; all patients N=54, p=0.0632): 0.5; GNT Total correct, Difference, AQW051 15 mg vs. placebo [5]: −1.5; PRM Percent correct delayed, Difference, AQW051 15 mg vs. placebo ([6]; p=0.4244): 0; PRM Mean correct latency delayed, Difference, AQW051 15 mg vs. placebo ([6]; p=0.7864): 150 ms; PRM Percent correct immediate, Difference, AQW051 15 mg vs. placebo ([6]; p=0.8090): −4; PRM Mean correct latency immediate, Difference, AQW051 15 mg vs. placebo ([6]; p=0.8328): 198 ms; Flatulence related to study drug, (%) ([7]; AD N = 7): 14.3%; Patients with AE(s) related to study drug, (%) ([7]; AD N = 7): 14.3%; Constipation related to study drug, (%) ([7]; MCI N = 20): 5.0%; Dysgraphia related to study drug, (%) ([7]; MCI N = 20): 5.0%; Headache related to study drug, (%) ([7]; MCI N = 20): 10.0%; Increased tendency to bruise related to study drug, (%) ([7]; MCI N = 20): 5.0%; Muscle spasms related to study drug, (%) ([7]; MCI N = 20): 5.0%; Pain in extremity related to study drug, (%) ([7]; MCI N = 20): 5.0%; Patients with AE(s) related to study drug, (%) ([7]; MCI N = 20): 15.0%; Pruritus related to study drug, (%) ([7]; MCI N = 20): 5.0%; Bronchitis AE, (%) of subjects ([7]; N = 27): (3.7) %; Bronchitis AE, n of subjects ([7]; N = 27): 1; Chalazion AE, (%) of subjects ([7]; N = 27): (3.7) %; Chalazion AE, n of subjects ([7]; N = 27): 1; Constipation AE, (%) of subjects ([7]; N = 27): (3.7) %; Constipation AE, n of subjects ([7]; N = 27): 1; Dysgraphia AE, (%) of subjects ([7]; N = 27): (3.7) %; Dysgraphia AE, n of subjects ([7]; N = 27): 1; Ear and Labyrinth disorders AEs, (%) of subjects ([7]; N = 27): (3.7) %; Ear and Labyrinth disorders AEs, n of subjects ([7]; N = 27): 1; Epistaxis AE, (%) of subjects ([7]; N = 27): (3.7) %; Epistaxis AE, n of subjects ([7]; N = 27): 1; Eye disorders AEs, (%) of subjects ([7]; N = 27): (3.7) %; Eye disorders AEs, n of subjects ([7]; N = 27): 1; Flatulence AE, (%) of subjects ([7]; N = 27): (3.7) %; Flatulence AE, n of subjects ([7]; N = 27): 1; Gastrointestinal disorders AEs, (%) of subjects ([7]; N = 27): (7.4) %; Gastrointestinal disorders AEs, n of subjects ([7]; N = 27): 2; Headache AE, (%) of subjects ([7]; N = 27): (7.4) %; Headache AE, n of subjects ([7]; N = 27): 2; Hepatic function abnormal AE, (%) of subjects ([7]; N = 27): (3.7) %; Hepatic function abnormal AE, n of subjects ([7]; N = 27): 1; Hepatobiliary disorders AEs, (%) of subjects ([7]; N = 27): (3.7) %; Hepatobiliary disorders AEs, n of subjects ([7]; N = 27): 1; Increased tendency to bruise AE, (%) of subjects ([7]; N = 27): (3.7) %; Increased tendency to bruise AE, n of subjects ([7]; N = 27): 1; Infections and infestations AEs, (%) of subjects ([7]; N = 27): (11.1) %; Infections and infestations AEs, n of subjects ([7]; N = 27): 3; Laryngitis AE, (%) of subjects ([7]; N = 27): (3.7) %; Laryngitis AE, n of subjects ([7]; N = 27): 1; Muscle spasms AE, (%) of subjects ([7]; N = 27): (3.7) %; Muscle spasms AE, n of subjects ([7]; N = 27): 1; Musculoskeletal and connective tissue disorders AEs, (%) of subjects ([7]; N = 27): (7.4) %; Musculoskeletal and connective tissue disorders AEs, n of subjects ([7]; N = 27): 2; Nasopharyngitis AE, (%) of subjects ([7]; N = 27): (3.7) %; Nasopharyngitis AE, n of subjects ([7]; N = 27): 1; Nervous system disorders AEs, (%) of subjects ([7]; N = 27): (7.4) %; Nervous system disorders AEs, n of subjects ([7]; N = 27): 2; Pain in extremity AE, (%) of subjects ([7]; N = 27): (7.4) %; Pain in extremity AE, n of subjects ([7]; N = 27): 2; Patients with AEs, (%) of subjects ([7]; N = 27): (40.7) %; Patients with AEs, n of subjects ([7]; N = 27): 11; Pruritus AE, (%) of subjects ([7]; N = 27): (3.7) %; Pruritus AE, n of subjects ([7]; N = 27): 1; Respiratory, thoracic and mediastinal disorders AEs, (%) of subjects ([7]; N = 27): (3.7) %; Respiratory, thoracic and mediastinal disorders AEs, n of subjects ([7]; N = 27): 1; Skin and subcutaneous disorders AEs, (%) of subjects ([7]; N = 27): (7.4) %; Skin and subcutaneous disorders AEs, n of subjects ([7]; N = 27): 2; Skin lesion AE, (%) of subjects ([7]; N = 27): (3.7) %; Skin lesion AE, n of subjects ([7]; N = 27): 1; Tympanic membrane perforation AE, (%) of subjects ([7]; N = 27): (3.7) %; Tympanic membrane perforation AE, n of subjects ([7]; N = 27): 1; Constipation related to study drug, (%) ([7]; Total N = 27): 3.7%; Dysgraphia related to study drug, (%) ([7]; Total N = 27): 3.7%; Flatulence related to study drug, (%) ([7]; Total N = 27): 3.7%; Headache related to study drug, (%) ([7]; Total N = 27): 7.4%; Increased tendency to bruise related to study drug, (%) ([7]; Total N = 27): 3.7%; Muscle spasms related to study drug, (%) ([7]; Total N = 27): 3.7%; Pain in extremity related to study drug, (%) ([7]; Total N = 27): 3.7%; Patients with AE(s) related to study drug, (%) ([7]; Total N = 27): 14.8%; Pruritus related to study drug, (%) ([7]; Total N = 27): 3.7%
